{"source": "ChEMBL document CHEMBL1201862", "about": "“PubChem BioAssay data set” (2004)", "experiment_in_all_cases": "NCI anticancer screen, dose series, 48 h", "key": {"786-0": {"test_system": "786-0"}, "A498": {"test_system": "A498"}, "A549": {"test_system": "A549"}, "ACHN": {"test_system": "ACHN"}, "CAKI-1": {"test_system": "CAKI-1"}, "CCRF-CEM": {"test_system": "CCRF-CEM"}, "COLO 205": {"test_system": "COLO 205"}, "DLD-1": {"test_system": "DLD-1"}, "DMS-114": {"test_system": "DMS-114"}, "DMS-273": {"test_system": "DMS-273"}, "EKVX": {"test_system": "EKVX"}, "HCC 2998": {"test_system": "HCC 2998"}, "HCT-116": {"test_system": "HCT-116"}, "HCT-15": {"test_system": "HCT-15"}, "HL-60": {"test_system": "HL-60"}, "HOP-18": {"test_system": "HOP-18"}, "HOP-62": {"test_system": "HOP-62"}, "HT-29": {"test_system": "HT-29"}, "IGROV-1": {"test_system": "IGROV-1"}, "K562": {"test_system": "K562"}, "KM-20L2": {"test_system": "KM-20L2"}, "KM12": {"test_system": "KM12"}, "LOX IMVI": {"test_system": "LOX IMVI"}, "LXFL 529": {"test_system": "LXFL 529"}, "M14": {"test_system": "M14"}, "M19-MEL": {"test_system": "M19-MEL"}, "MOLT-4": {"test_system": "MOLT-4"}, "Malme-3M": {"test_system": "Malme-3M"}, "NCI-H226": {"test_system": "NCI-H226"}, "NCI-H23": {"test_system": "NCI-H23"}, "NCI-H460": {"test_system": "NCI-H460"}, "NCI-H522": {"test_system": "NCI-H522"}, "OVCAR-3": {"test_system": "OVCAR-3"}, "OVCAR-4": {"test_system": "OVCAR-4"}, "OVCAR-5": {"test_system": "OVCAR-5"}, "OVCAR-8": {"test_system": "OVCAR-8"}, "RPMI-8226": {"test_system": "RPMI-8226"}, "RXF 393": {"test_system": "RXF 393"}, "SF-268": {"test_system": "SF-268"}, "SF-295": {"test_system": "SF-295"}, "SF-539": {"test_system": "SF-539"}, "SK-MEL-28": {"test_system": "SK-MEL-28"}, "SK-MEL-2": {"test_system": "SK-MEL-2"}, "SK-MEL-5": {"test_system": "SK-MEL-5"}, "SK-OV-3": {"test_system": "SK-OV-3"}, "SN12C": {"test_system": "SN12C"}, "SNB-19": {"test_system": "SNB-19"}, "SNB-75": {"test_system": "SNB-75"}, "SNB-78": {"test_system": "SNB-78"}, "SW-620": {"test_system": "SW-620"}, "TK-10": {"test_system": "TK-10"}, "U-251": {"test_system": "U-251"}, "UACC-257": {"test_system": "UACC-257"}, "UACC-62": {"test_system": "UACC-62"}, "UO-31": {"test_system": "UO-31"}}, "note": "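These data come from cells grown in 96-well plates and exposed to compound for 48 hours at five concentrations. GI50 marks 50% less growth.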 Activity calls are given as the source filed them. No stated cut-off is given here; in the data, active = GI50 up to about 1.1 µM and inactive = higher.", "data": [{"smiles": "OC12c3ccccc3C3CCC4(OCCO4)C3C1c1ccccc12", "note": "(stereo not given)", "values": [{"measurement": "GI50", "setting": "786-0", "result": "> 100 µM (inactive)"}, {"measurement": "GI50", "setting": "A498", "result": "52.1 µM (inactive)"}, {"measurement": "GI50", "setting": "A549", "result": "> 100 µM (inactive)"}, {"measurement": "GI50", "setting": "ACHN", "result": "> 100 µM (inactive)"}, {"measurement": "GI50", "setting": "CAKI-1", "result": "> 100 µM (inactive)"}, {"measurement": "GI50", "setting": "CCRF-CEM", "result": "> 100 µM (inactive)"}, {"measurement": "GI50", "setting": "COLO 205", "result": "> 100 µM (inactive)"}, {"measurement": "GI50", "setting": "DLD-1", "result": "> 100 µM (inactive)"}, {"measurement": "GI50", "setting": "DMS-114", "result": "53.6 µM (inactive)"}, {"measurement": "GI50", "setting": "DMS-273", "result": "> 100 µM (inactive)"}, {"measurement": "GI50", "setting": "EKVX", "result": "> 100 µM (inactive)"}, {"measurement": "GI50", "setting": "HCC 2998", "result": "> 100 µM (inactive)"}, {"measurement": "GI50", "setting": "HCT-116", "result": "> 100 µM (inactive)"}, {"measurement": "GI50", "setting": "HCT-15", "result": "> 100", "unit": "µM"}, {"measurement": "GI50", "setting": "HL-60", "result": "> 100 µM (inactive)"}, {"measurement": "GI50", "setting": "HOP-18", "result": "> 100 µM (inactive)"}, {"measurement": "GI50", "setting": "HOP-62", "result": "> 100 µM (inactive)"}, {"measurement": "GI50", "setting": "HT-29", "result": "94.2 µM (inactive)"}, {"measurement": "GI50", "setting": "IGROV-1", "result": "61.8 µM (inactive)"}, {"measurement": "GI50", "setting": "K562", "result": "49.8 µM (inactive)"}, {"measurement": "GI50", "setting": "KM-20L2", "result": "> 100 µM (inactive)"}, {"measurement": "GI50", "setting": "KM12", "result": "> 100 µM (inactive)"}, {"measurement": "GI50", "setting": "LOX IMVI", "result": "> 100 µM (inactive)"}, {"measurement": "GI50", "setting": "LXFL 529", "result": "> 100 µM (inactive)"}, {"measurement": "GI50", "setting": "M14", "result": "> 100 µM (inactive)"}, {"measurement": "GI50", "setting": "M19-MEL", "result": "> 100 µM (inactive)"}, {"measurement": "GI50", "setting": "MOLT-4", "result": "48.6 µM (inactive)"}, {"measurement": "GI50", "setting": "Malme-3M", "result": "> 100 µM (inactive)"}, {"measurement": "GI50", "setting": "NCI-H226", "result": "> 100 µM (inactive)"}, {"measurement": "GI50", "setting": "NCI-H23", "result": "> 100 µM (inactive)"}, {"measurement": "GI50", "setting": "NCI-H460", "result": "> 100 µM (inactive)"}, {"measurement": "GI50", "setting": "NCI-H522", "result": "65 µM (inactive)"}, {"measurement": "GI50", "setting": "OVCAR-3", "result": "> 100 µM (inactive)"}, {"measurement": "GI50", "setting": "OVCAR-4", "result": "> 100 µM (inactive)"}, {"measurement": "GI50", "setting": "OVCAR-5", "result": "> 100 µM (inactive)"}, {"measurement": "GI50", "setting": "OVCAR-8", "result": "> 100 µM (inactive)"}, {"measurement": "GI50", "setting": "RPMI-8226", "result": "64 µM (inactive)"}, {"measurement": "GI50", "setting": "RXF 393", "result": "39.9 µM (inactive)"}, {"measurement": "GI50", "setting": "SF-268", "result": "> 100 µM (inactive)"}, {"measurement": "GI50", "setting": "SF-295", "result": "> 100 µM (inactive)"}, {"measurement": "GI50", "setting": "SF-539", "result": "> 100 µM (inactive)"}, {"measurement": "GI50", "setting": "SK-MEL-28", "result": "> 100 µM (inactive)"}, {"measurement": "GI50", "setting": "SK-MEL-2", "result": "> 100 µM (inactive)"}, {"measurement": "GI50", "setting": "SK-MEL-5", "result": "> 100 µM (inactive)"}, {"measurement": "GI50", "setting": "SK-OV-3", "result": "> 100 µM (inactive)"}, {"measurement": "GI50", "setting": "SN12C", "result": "> 100 µM (inactive)"}, {"measurement": "GI50", "setting": "SNB-19", "result": "> 100 µM (inactive)"}, {"measurement": "GI50", "setting": "SNB-75", "result": "39.6 µM (inactive)"}, {"measurement": "GI50", "setting": "SNB-78", "result": "> 100 µM (inactive)"}, {"measurement": "GI50", "setting": "SW-620", "result": "> 100 µM (inactive)"}, {"measurement": "GI50", "setting": "TK-10", "result": "83.2 µM (inactive)"}, {"measurement": "GI50", "setting": "U-251", "result": "> 100 µM (inactive)"}, {"measurement": "GI50", "setting": "UACC-257", "result": "71.9 µM (inactive)"}, {"measurement": "GI50", "setting": "UACC-62", "result": "> 100 µM (inactive)"}, {"measurement": "GI50", "setting": "UO-31", "result": "> 100 µM (inactive)"}]}]}
